Data from PubChem BioAssay (NCI).
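Method: 48-hour compound exposure of cells in 96-well plates, five concentrations, linear interpolation of endpoints. TGI denotes the concentration required for complete inhibition of growth.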

What was measured:
Assay in all cases: NCI tumour cell line growth inhibition, 48 h
[1] = test system: A549 NSCLC
[2] = test system: COLO 205 colon
[3] = test system: HCT-116 colon
[4] = test system: HCT-15 colon
[5] = test system: K-562 leukemia
[6] = test system: M14 melanoma
[7] = test system: MALME-3M melanoma
[8] = test system: MDA-N
[9] = test system: NCI-H226 lung
[10] = test system: OVCAR-5 ovarian
[11] = test system: SF-295 CNS
[12] = test system: SF-539 CNS
[13] = test system: SK-MEL-2 melanoma
[14] = test system: SN12C renal
[15] = test system: SNB-75 CNS
[16] = test system: SR leukemia
[17] = test system: SW-620 colon
[18] = test system: UACC-257 melanoma
[19] = test system: UO-31 renal
[20] = test system: T-47D breast

Question: CCO/C=N\c1c(C#N)c(-c2ccc(Cl)cc2)cn1-c1ccc(C)cc1 was tested. Which TGI [1] did it give?
Answer: > 100 µM

Question: And the TGI [2]?
Answer: > 100 µM

Question: What about the TGI [3] of the same compound?
Answer: > 100 µM

Question: What about the TGI [4] of the same compound?
Answer: > 100 µM

Question: And the TGI [5]?
Answer: > 100 µM

Question: What about the TGI [6] of the same compound?
Answer: > 100 µM

Question: What about the TGI [7] of the same compound?
Answer: > 100 µM

Question: And the TGI [8]?
Answer: > 100 µM

Question: And the TGI [9]?
Answer: > 100 µM

Question: What about the TGI [10] of the same compound?
Answer: > 100 µM

Question: And the TGI [11]?
Answer: > 100 µM

Question: And the TGI [12]?
Answer: > 100 µM

Question: What about the TGI [13] of the same compound?
Answer: > 100 µM

Question: And the TGI [14]?
Answer: > 100 µM

Question: What about the TGI [15] of the same compound?
Answer: > 100 µM

Question: And the TGI [16]?
Answer: > 100 µM

Question: What about the TGI [17] of the same compound?
Answer: > 100 µM

Question: What about the TGI [18] of the same compound?
Answer: > 100 µM

Question: What about the TGI [19] of the same compound?
Answer: > 100 µM

Question: CCN1C(=O)C(=C/C=C/C=C2/N(C)c3ccccc3C2(C)C)C(=O)N(CC)C1=S was tested. Which TGI [1] did it give?
Answer: > 100 µM

Question: What about the TGI [2] of the same compound?
Answer: > 100 µM

Question: What about the TGI [3] of the same compound?
Answer: > 100 µM

Question: What about the TGI [4] of the same compound?
Answer: > 100 µM

Question: And the TGI [5]?
Answer: > 100 µM

Question: What about the TGI [6] of the same compound?
Answer: > 100 µM

Question: What about the TGI [7] of the same compound?
Answer: > 100 µM

Question: And the TGI [8]?
Answer: > 100 µM

Question: What about the TGI [9] of the same compound?
Answer: > 100 µM

Question: And the TGI [10]?
Answer: > 100 µM

Question: What about the TGI [11] of the same compound?
Answer: > 100 µM

Question: What about the TGI [12] of the same compound?
Answer: > 100 µM

Question: And the TGI [13]?
Answer: > 100 µM

Question: And the TGI [14]?
Answer: > 100 µM

Question: What about the TGI [15] of the same compound?
Answer: > 100 µM

Question: What about the TGI [17] of the same compound?
Answer: > 100 µM

Question: What about the TGI [20] of the same compound?
Answer: > 100 µM

Question: What about the TGI [18] of the same compound?
Answer: > 100 µM

Question: And the TGI [19]?
Answer: > 100 µM

Question: For CC1(C)CC2=C(Sc3ccccc3N2)C(=O)C1C(=O)C(=O)Nc1cccc([N+](=O)[O-])c1 (stereo unspecified), which TGI [1] is on record?
Answer: > 100 µM

Question: And the TGI [2]?
Answer: > 100 µM

Question: What about the TGI [3] of the same compound?
Answer: > 100 µM

Question: And the TGI [4]?
Answer: > 100 µM

Question: And the TGI [5]?
Answer: > 100 µM

Question: And the TGI [6]?
Answer: > 100 µM

Question: What about the TGI [7] of the same compound?
Answer: > 100 µM

Question: What about the TGI [8] of the same compound?
Answer: > 100 µM

Question: And the TGI [9]?
Answer: > 100 µM

Question: What about the TGI [10] of the same compound?
Answer: > 100 µM

Question: And the TGI [11]?
Answer: > 100 µM

Question: What about the TGI [12] of the same compound?
Answer: > 100 µM

Question: And the TGI [13]?
Answer: > 100 µM

Question: And the TGI [14]?
Answer: > 100 µM

Question: What about the TGI [15] of the same compound?
Answer: > 100 µM

Question: What about the TGI [17] of the same compound?
Answer: > 100 µM

Question: What about the TGI [20] of the same compound?
Answer: > 100 µM

Question: What about the TGI [18] of the same compound?
Answer: > 100 µM

Question: And the TGI [19]?
Answer: > 100 µM

Question: How did the TGI [1] turn out when CN1C/C(=C\c2cccs2)C2=NN(C)C(c3cccs3)C2C1 (stereo unspecified) was run?
Answer: > 100 µM

Question: What about the TGI [2] of the same compound?
Answer: > 100 µM

Question: And the TGI [3]?
Answer: > 100 µM

Question: And the TGI [4]?
Answer: > 100 µM

Question: And the TGI [5]?
Answer: > 100 µM

Question: And the TGI [6]?
Answer: > 100 µM

Question: And the TGI [7]?
Answer: > 100 µM

Question: And the TGI [8]?
Answer: > 100 µM

Question: And the TGI [9]?
Answer: > 100 µM

Question: And the TGI [10]?
Answer: > 100 µM

Question: What about the TGI [11] of the same compound?
Answer: > 100 µM

Question: And the TGI [13]?
Answer: 81.2 µM

Question: What about the TGI [14] of the same compound?
Answer: > 100 µM

Question: What about the TGI [17] of the same compound?
Answer: > 100 µM

Question: What about the TGI [20] of the same compound?
Answer: > 100 µM

Question: What about the TGI [18] of the same compound?
Answer: > 100 µM

Question: And the TGI [19]?
Answer: > 100 µM

Question: With CC1C/C(=C\c2ccc(OC(=O)C(C)(C)C)cc2)C(=O)/C(=C/c2ccc(OC(=O)C(C)(C)C)cc2)C1 (stereo unspecified) as the compound, how does the TGI [1] read?
Answer: > 100 µM

Question: What about the TGI [2] of the same compound?
Answer: > 100 µM

Question: What about the TGI [3] of the same compound?
Answer: > 100 µM

Question: And the TGI [4]?
Answer: > 100 µM

Question: What about the TGI [5] of the same compound?
Answer: > 100 µM

Question: And the TGI [6]?
Answer: > 100 µM

Question: What about the TGI [7] of the same compound?
Answer: > 100 µM

Question: What about the TGI [8] of the same compound?
Answer: > 100 µM

Question: And the TGI [9]?
Answer: 71 µM

Question: What about the TGI [10] of the same compound?
Answer: > 100 µM

Question: What about the TGI [11] of the same compound?
Answer: > 100 µM

Question: What about the TGI [12] of the same compound?
Answer: > 100 µM

Question: And the TGI [13]?
Answer: > 100 µM

Question: What about the TGI [14] of the same compound?
Answer: > 100 µM

Question: What about the TGI [16] of the same compound?
Answer: > 100 µM

Question: And the TGI [17]?
Answer: > 100 µM

Question: What about the TGI [20] of the same compound?
Answer: > 100 µM

Question: And the TGI [18]?
Answer: > 100 µM

Question: How did the TGI [1] turn out when COc1ccc(S(=O)(=O)NC(CCC(=O)NN)C(=O)NN)cc1 (stereo unspecified) was run?
Answer: > 100 µM

Question: And the TGI [2]?
Answer: > 100 µM

Question: What about the TGI [3] of the same compound?
Answer: > 100 µM

Question: What about the TGI [4] of the same compound?
Answer: > 100 µM

Question: What about the TGI [5] of the same compound?
Answer: > 100 µM

Question: And the TGI [6]?
Answer: > 100 µM

Question: And the TGI [7]?
Answer: > 100 µM

Question: What about the TGI [8] of the same compound?
Answer: > 100 µM

Question: What about the TGI [10] of the same compound?
Answer: > 100 µM

Question: And the TGI [11]?
Answer: > 100 µM

Question: And the TGI [12]?
Answer: > 100 µM

Question: And the TGI [13]?
Answer: > 100 µM

Question: And the TGI [14]?
Answer: > 100 µM

Question: And the TGI [15]?
Answer: > 100 µM

Question: What about the TGI [16] of the same compound?
Answer: > 100 µM

Question: What about the TGI [17] of the same compound?
Answer: > 100 µM

Question: And the TGI [20]?
Answer: > 100 µM

Question: And the TGI [18]?
Answer: > 100 µM

Question: What about the TGI [19] of the same compound?
Answer: > 100 µM
